From US20250197374A1, “WEE1 DEGRADING COMPOUNDS AND USES THEREOF” (BRISTOL-MYERS SQUIBB COMPANY, priority 2023, published 2025)

Columns and labels:
Type in all cases: cell-based
[1] = target: T1, WEE1 (Homo sapiens, UniProt P30291+Q96SW2); assay: WEE1-ePL degradation assay (293T-LentiX, InCELL Hunter luminescence, 4 hr); details: for DC50: LentiX-HEK293T cells expressing WEE1-ePL, 4 hr incubation, read-out: 293T-LentiX WEE1-ePL Degradation 4 hr EC50; for 293T-LentiX WEE1-ePL Degradation 4 hr YMin (%): lower limit of fit, % of DMSO control signal remaining
T1 construct: C-terminal ePL-tagged (DiscoverX, Fremont, CA) full-length WEE1 expression construct; expressed in transfected cells; host or cells: LentiX-HEK293T (Invitrogen), lentivirally transduced; the cells also over-express GSPT1-GN
In short: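 LentiX-HEK293T cells expressing C-terminally ePL-tagged full-length WEE1 plus non-degradable GSPT1-GN (G575N, N-terminal 158 aa truncated). Treated 4 h at 37 °C with a 10-point, 3-fold series from 1 or 10 µM, then read by InCELL Hunter luminescence. EC50 from four-parameter logistic fit, Ymax set by DMSO control.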

[2] = test system: MKN45 cells; assay: MKN45 cell proliferation assay (Cell-Titer-Glo, 120 hr); details: for EC50: Homo sapiens, MKN-45, 120 h, read-out: MKN45 Cell Prolif. 120 hr EC50; for MKN45 Cell Prolif. 120 hr YMin (%): minimal percent of DMSO control observed
In short: (§1)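 MKN45 (400/well) and MDA-MB-231 (800/well) cells in RPMI with 10% FBS were exposed to 10-point half-log doses from 1 or 10 uM (0.1% DMSO) for 120 h at 37 °C. Viability was read by CellTiter-Glo luminescence. EC50 came from blank-subtracted, %DMSO four-parameter fits, with Ymin-obs as the lowest %DMSO observed.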

[3] = test system: MDA-MB-231 cells; assay: MDA-MB-231 cell proliferation assay (Cell-Titer-Glo, 120 hr); details: for EC50: Homo sapiens, MDA-MB-231, 120 h, read-out: MDA-MB 231 Cell Prolif. 120 hr EC50; for MDA-MB 231 Cell Prolif. 120 hr YMin (%): minimal percent of DMSO control observed
In short: as §1

T1 sequence (P30291 whole entry): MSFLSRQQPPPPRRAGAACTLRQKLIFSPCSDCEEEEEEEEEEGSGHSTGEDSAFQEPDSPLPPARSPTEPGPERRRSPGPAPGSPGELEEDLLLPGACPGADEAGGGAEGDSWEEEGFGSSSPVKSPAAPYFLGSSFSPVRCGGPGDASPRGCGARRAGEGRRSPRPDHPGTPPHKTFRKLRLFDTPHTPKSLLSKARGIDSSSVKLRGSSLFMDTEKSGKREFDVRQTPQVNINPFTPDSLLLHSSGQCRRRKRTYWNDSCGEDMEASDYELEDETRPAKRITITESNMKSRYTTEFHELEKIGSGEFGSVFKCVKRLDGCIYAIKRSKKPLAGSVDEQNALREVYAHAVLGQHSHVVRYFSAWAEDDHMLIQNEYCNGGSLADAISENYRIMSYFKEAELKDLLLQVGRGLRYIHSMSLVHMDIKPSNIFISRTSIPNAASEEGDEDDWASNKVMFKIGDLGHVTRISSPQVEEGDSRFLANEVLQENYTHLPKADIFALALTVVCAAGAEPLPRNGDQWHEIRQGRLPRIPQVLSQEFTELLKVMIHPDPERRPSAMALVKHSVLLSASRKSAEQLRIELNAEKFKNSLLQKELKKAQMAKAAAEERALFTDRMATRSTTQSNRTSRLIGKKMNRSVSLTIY
T1 sequence (Q96SW2 whole entry): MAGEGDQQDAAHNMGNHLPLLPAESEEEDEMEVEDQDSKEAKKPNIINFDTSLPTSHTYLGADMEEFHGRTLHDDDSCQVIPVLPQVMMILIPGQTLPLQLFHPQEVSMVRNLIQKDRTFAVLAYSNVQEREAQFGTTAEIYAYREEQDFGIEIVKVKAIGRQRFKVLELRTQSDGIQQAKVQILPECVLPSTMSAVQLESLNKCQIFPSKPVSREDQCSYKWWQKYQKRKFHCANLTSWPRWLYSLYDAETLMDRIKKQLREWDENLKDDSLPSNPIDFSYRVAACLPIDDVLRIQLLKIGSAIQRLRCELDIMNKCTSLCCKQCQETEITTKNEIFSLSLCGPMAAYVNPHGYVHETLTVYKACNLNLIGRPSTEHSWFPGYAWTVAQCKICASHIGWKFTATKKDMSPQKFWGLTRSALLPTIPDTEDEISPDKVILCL
T1 sequence (Q16531 whole entry partner): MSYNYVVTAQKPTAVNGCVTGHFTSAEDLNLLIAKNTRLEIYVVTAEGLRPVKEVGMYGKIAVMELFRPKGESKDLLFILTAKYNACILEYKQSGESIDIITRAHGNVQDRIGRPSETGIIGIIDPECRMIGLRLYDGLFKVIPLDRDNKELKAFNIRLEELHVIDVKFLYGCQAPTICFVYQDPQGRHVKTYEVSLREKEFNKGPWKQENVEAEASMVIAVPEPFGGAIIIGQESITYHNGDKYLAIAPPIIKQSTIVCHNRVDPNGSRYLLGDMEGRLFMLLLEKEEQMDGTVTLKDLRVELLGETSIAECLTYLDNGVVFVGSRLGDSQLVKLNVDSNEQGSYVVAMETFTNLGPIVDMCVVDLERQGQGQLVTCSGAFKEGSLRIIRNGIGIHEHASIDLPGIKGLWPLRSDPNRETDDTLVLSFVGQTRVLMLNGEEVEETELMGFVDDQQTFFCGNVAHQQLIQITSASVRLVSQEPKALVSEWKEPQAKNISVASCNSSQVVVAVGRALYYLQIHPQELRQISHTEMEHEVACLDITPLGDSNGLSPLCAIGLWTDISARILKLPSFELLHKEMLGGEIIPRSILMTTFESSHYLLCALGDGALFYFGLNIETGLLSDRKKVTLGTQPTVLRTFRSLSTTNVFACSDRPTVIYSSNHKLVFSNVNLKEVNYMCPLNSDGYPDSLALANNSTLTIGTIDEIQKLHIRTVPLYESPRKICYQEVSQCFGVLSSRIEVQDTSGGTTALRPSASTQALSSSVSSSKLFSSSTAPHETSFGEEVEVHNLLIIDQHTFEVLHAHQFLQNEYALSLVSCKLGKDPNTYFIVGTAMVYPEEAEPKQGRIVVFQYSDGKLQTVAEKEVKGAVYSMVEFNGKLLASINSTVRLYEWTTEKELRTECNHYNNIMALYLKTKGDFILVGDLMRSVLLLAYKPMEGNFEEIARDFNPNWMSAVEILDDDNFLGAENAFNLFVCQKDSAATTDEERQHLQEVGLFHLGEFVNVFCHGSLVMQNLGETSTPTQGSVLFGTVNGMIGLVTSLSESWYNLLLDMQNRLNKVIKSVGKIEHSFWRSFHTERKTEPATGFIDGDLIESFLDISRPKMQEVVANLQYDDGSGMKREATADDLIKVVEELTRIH

SMILES | DC50 [1] | 293T-LentiX WEE1-ePL Degradation 4 hr YMin (%) [1] | EC50 [2] | MKN45 Cell Prolif. 120 hr YMin (%) [2] | EC50 [3] | MDA-MB 231 Cell Prolif. 120 hr YMin (%) [3]
COC[C@@H]1CN(Cc2cc(F)c3c(ccn3C(=O)C3CCOCC3)c2)C[C@H]1Oc1ccc2c(c1)CN([C@H]1CCC(=O)NC1=O)C2=O [Example 24, (3S)-3-(5-{[(3S,4S)-1-{[7-fluoro-1-(oxane-4-carbonyl)-1H-indol-5-yl]methyl}-4-(methoxymethyl)pyrrolidin-3-yl]oxy}-1-oxo-2,3-dihydro-1H-isoindol-2-yl)piperidine-2,6-dione] | 5 nM | 37.7% | 50 nM | 49.1% | 68 nM | 87.7%
COC[C@@H]1CN(Cc2cc(F)c3nc(N4CCOC5(CC5)C4)ncc3c2)C[C@H]1Oc1ccc2c(c1)CN([C@H]1CCC(=O)NC1=O)C2=O [Example 79, (3S)-3-(5-{[(3S,4S)-1-[(8-fluoro-2-{4-oxa-7-azaspiro[2.5]octan-7-yl}quinazolin-6-yl)methyl]-4-(methoxymethyl)pyrrolidin-3-yl]oxy}-1-oxo-2,3-dihydro-1H-isoindol-2-yl)piperidine-2,6-dione] | 1 nM | 28.7% | 1 nM | 9.9% | 31 nM | 17.9%
COC[C@@H]1CN(Cc2ccc3nc(N4C[C@H]5CCO[C@H]5C4)ncc3c2)C[C@H]1Oc1ccc2c(c1)CN([C@H]1CCC(=O)NC1=O)C2=O (single isomer, unassigned) [Example 8, (S)-3-(5-(((3S,4S)-1-((2-((3aR*,6aR*)-hexahydro-5H-furo[2,3-c]pyrrol-5-yl)quinazolin-6-yl)methyl)-4-(methoxymethyl)pyrrolidin-3-yl)oxy)-1-oxoisoindolin-2-yl)piperidine-2,6-dione] | 4 nM | 27.5% | 6 nM | 10.0% | 105 nM | 31.9%
CC(C)C[C@H]1CN(Cc2cc(F)c3nc(C4CCOCC4)ccc3c2)C[C@@H]1Oc1ccc2c(c1)CN([C@H]1CCC(=O)NC1=O)C2=O (relative stereo) [Example 148, (3S)-3-(5-{[(3R*,4S*)-1-{[8-fluoro-2-(oxan-4-yl)quinolin-6-yl]methyl}-4-(2-methylpropyl)pyrrolidin-3-yl]oxy}-1-oxo-2,3-dihydro-1H-isoindol-2-yl)piperidine-2,6-dione] | 1 nM | 28.4% | 3 nM | 9.9% | 207 nM | 74.8%
COC[C@@H]1CN(Cc2cc(F)c3nc(C4(O)CCOCC4)ncc3c2)C[C@H]1Oc1ccc2c(c1)CN([C@H]1CCC(=O)NC1=O)C2=O [Example 62, (3S)-3-(5-{[(3S,4S)-1-{[8-fluoro-2-(4-hydroxyoxan-4-yl)quinazolin-6-yl]methyl}-4-(methoxymethyl)pyrrolidin-3-yl]oxy}-1-oxo-2,3-dihydro-1H-isoindol-2-yl)piperidine-2,6-dione] | 4 nM | 31.6% | 7 nM | 11.9% | 100 nM | 33.0%
COC[C@@H]1CN(Cc2cc(F)c3nc(C45CCC(C(C)(C)O)(CC4)CC5)ccc3c2)C[C@H]1Oc1ccc2c(c1)CN([C@H]1CCC(=O)NC1=O)C2=O [Example 119, (S)-3-(5-(((3S,4S)-1-((8-fluoro-2-(4-(2-hydroxypropan-2-yl)bicyclo[2.2.2]octan-1-yl)quinolin-6-yl)methyl)-4-(methoxymethyl)pyrrolidin-3-yl)oxy)-1-oxoisoindolin-2-yl)piperidine-2,6-dione] | – | 23.6% | – | 6.8% | 67 nM | 1.7%
COC[C@@H]1CN(Cc2ccc3nc(N4CCN(C(C)=O)C5(CC5)C4)ccc3c2)C[C@H]1Oc1ccc2c(c1)CN([C@H]1CCC(=O)NC1=O)C2=O [Example 89, (3S)-3-(5-{[(3S,4S)-1-[(2-{4-acetyl-4,7-diazaspiro[2.5]octan-7-yl}quinolin-6-yl)methyl]-4-(methoxymethyl)pyrrolidin-3-yl]oxy}-1-oxo-2,3-dihydro-1H-isoindol-2-yl)piperidine-2,6-dione] | 1 nM | 30.2% | 1 nM | 8.4% | 9 nM | 16.8%
COC[C@@H]1CN(Cc2cc(F)c3nc(N4CCN(CC(F)(F)F)CC4)ccc3c2)C[C@H]1Oc1ccc2c(c1)CN([C@H]1CCC(=O)NC1=O)C2=O [Example 44, (3S)-3-(5-{[(3S,4S)-1-({8-fluoro-2-[4-(2,2,2-trifluoroethyl)piperazin-1-yl]quinolin-6-yl}methyl)-4-(methoxymethyl)pyrrolidin-3-yl]oxy}-1-oxo-2,3-dihydro-1H-isoindol-2-yl)piperidine-2,6-dione] | 1 nM | 27.8% | 1 nM | 8.9% | 14 nM | 22.3%
COC[C@@H]1CN(Cc2cc(F)c3nc(C4CN(C(C)=O)C4)ncc3c2)C[C@H]1Oc1ccc2c(c1)CN([C@H]1CCC(=O)NC1=O)C2=O [Example 45, (3S)-3-(5-{[(3S,4S)-1-{[2-(1-acetylazetidin-3-yl)-8-fluoroquinazolin-6-yl]methyl}-4-(methoxymethyl)pyrrolidin-3-yl]oxy}-1-oxo-2,3-dihydro-1H-isoindol-2-yl)piperidine-2,6-dione] | 53 nM | 31.5% | 35 nM | 13.4% | 278 nM | 52.6%
COC[C@@H]1CN(Cc2ccc3nc(N4C[C@@H]5CCO[C@@H]5C4)ccc3c2)C[C@H]1Oc1ccc2c(c1)CN([C@H]1CCC(=O)NC1=O)C2=O (single isomer, unassigned) [Example 16, (S)-3-(5-(((3S,4S)-1-((2-((3aS*,6aS*)-hexahydro-5H-furo[2,3-c]pyrrol-5-yl)quinolin-6-yl)methyl)-4-(methoxymethyl)pyrrolidin-3-yl)oxy)-1-oxoisoindolin-2-yl)piperidine-2,6-dione] | – | 29.6% | 2 nM | 10.8% | 48 nM | 43.7%
COC[C@@H]1CN(Cc2cc(F)c3nc(N4CCCC4=O)ncc3c2)C[C@H]1Oc1ccc2c(c1)CN([C@H]1CCC(=O)NC1=O)C2=O [Example 61, (3S)-3-(5-{[(3S,4S)-1-{[8-fluoro-2-(2-oxopyrrolidin-1-yl)quinazolin-6-yl]methyl}-4-(methoxymethyl)pyrrolidin-3-yl]oxy}-1-oxo-2,3-dihydro-1H-isoindol-2-yl)piperidine-2,6-dione] | 25 nM | 29.3% | 9 nM | 12.0% | 98 nM | 41.3%
